In patent US9040571B2, “Veterinary formulation for administration of a water-insoluble drug to a target animal through a water distribution system” (Elanco Animal Health Ireland Limited, priority 1999, dated 2015):

Experiment: Particle size distribution by static light scattering, storage stability
Format: physicochemical
Conditions: 45 mm lens, tap-water
Experimental: Additionally, the particle size distribution of the original suspoemulsion was determined by static light scattering measurements using a 45 mm lens and tap-water. The stability of the undiluted suspoemulsion as measured by static light scattering measurements was followed over a period of 8 months. The results from the Turbiscan scan measurements were evaluated graphically. […] This implies that the diluted product stays stable under static conditions, like for example in the dosage tank of an automatic injection system.

Structure (SMILES): COC(=O)Nc1nc2cc(C(=O)c3ccc(F)cc3)ccc2[nH]1 [Fb powder, flubendazole]
- particle size distribution at t = 0, (D[3, 2] in μm): 1.53 μm
